In assay [1] the test system is Raw264.7 cells. Briefly: Induction of type I IFNs and other antiviral genes by BAs (qPCR). Conditions: indicated concentrations of BAs. It is filed as cell-based. How it is done:
D. Induction of type I IFNs and other antiviral genes by BAs. Raw264.7 cells were treated by the indicated concentrations of the indicated BAs, followed by qPCR analysis of the expression of the indicated genes. L. Induction of type I IFNs and other antiviral genes by BAs. Raw264.7 cells were treated with LCA (200 μM) or CDCA (200 μM) for the indicated times, followed by qPCR analysis of the expression of the indicated genes.
In general terms: In qPCR the cycle at which signal appears reflects the starting amount.

In the next assay the test system is VSV-GFP. It is filed as cell-based.
The next assay concerns TGR5. Conditions: Tgr5+/+ macrophages (BMDMs); infected half an hour, then treatment for 6 hours.
A further assay has as its system monocytes. Conditions: monocytes in vitro; cited from earlier work.
Assay [2] has as its system Raw264.7 cells. Nature of the assay: Induction of phosphorylation of TBK1 and IRF3 by BAs (immunoblotting). Conditions: indicated concentrations of CDCA and LCA. It is filed as cell-based. As for the experimental part: E. Induction of phosphorylation of TBK1 and IRF3 by BAs. Raw264.7 cells were treated by the indicated concentrations of CDCA and LCA, followed by immunoblotting analysis with the indicated antibodies. Cells were lysed with RIPA buffer plus complete protease inhibitors and 20 mM NEM, and lysates were sonicated for 1 min. The lysates were centrifuged at 14000 rpm for 20 min at 4° C. The supernatants were incubated with respective antibodies at 4° C. overnight before protein G beads were added for 2 h. The beads were washed with cold PBS plus 0.5 M NaCl for three times followed by an additional wash with PBS. Proteins were separated by 8% SDS-PAGE, followed by immunoblot analysis with the indicated antibodies.
For orientation: A western blot detects proteins with antibodies after separation by electrophoresis.

A further assay has as its system SRC. Briefly: Induction of pY416 of SRC by INT-777 and BA treatments (immunoblotting). The assay is classed as cell-based. Conditions: HEK293 cells, treatment for 1 hours. As for the experimental part: G. Induction of pY416 of SRC by INT-777 and BA treatments. HEK293 cells were treated with DMSO, INT-777 or the indicated BAs for 1 hours, followed by immunoblotting analysis with the indicated antibodies.
Cells were lysed with RIPA buffer plus complete protease inhibitors and 20 mM NEM, and lysates were sonicated for 1 min. The lysates were centrifuged at 14000 rpm for 20 min at 4° C. The supernatants were incubated with respective antibodies at 4° C. overnight before protein G beads were added for 2 h. The beads were washed with cold PBS plus 0.5 M NaCl for three times followed by an additional wash with PBS. Proteins were separated by 8% SDS-PAGE, followed by immunoblot analysis with the indicated antibodies.

The next assay concerns THP1 cells. Nature of the assay: Effects of kinase inhibitors on virus-induced expression of BA metabolism genes and IFNB1 (qPCR). The assay is classed as cell-based, human. Conditions: inhibitor treatment, then HSV-1 or SeV for 4 hours.

Consider `C[C@H](CCC(=O)O)[C@H]1CC[C@H]2[C@@H]3[C@H](O)C[C@@H]4C[C@H](O)CC[C@]4(C)[C@H]3CC[C@]12C` [CDCA, chenodeoxycholic acid], for which, in the assay with Raw264.7 cells [1], the “transcription of downstream innate immunity genes including IFNB1, CXCL10 and ISG56” value is reported as “potently induced”. Also, the VSV-GFP replication entry in the assay on VSV-GFP is reported as “dramatically inhibited”. Further, in the assay with TGR5, the “HSV-1- and SeV-induced transcription of Ifnb1” value is on record as “potentiated”. Besides, the “production of interleukin-1, interleukin-6 and tumor necrosis factor-α” value in the assay with monocytes is “inhibits”. Besides, the “phosphorylation of TBK1 and IRF3” value in the assay with Raw264.7 cells [2] is reported as “induced phosphorylation”.
On to `CC[C@H]1[C@@H](O)[C@@H]2[C@H](C[C@H](O)[C@]3(C)[C@@H]([C@H](C)C[C@H](C)C(=O)O)CC[C@@H]23)[C@@]2(C)CC[C@@H](O)C[C@@H]12` [INT-777], for which the “phosphorylation of SRC at Y416” value with SRC was “induced phosphorylation”. Moreover, in the assay with TGR5, the “HSV-1- and SeV-induced transcription of Ifnb1” value is reported as “potentiated”.
Regarding `Cc1ccc2nc(NCCN)c3ncc(C)n3c2c1` [BMS-345541], the “HSV-1- and SeV-induced transcription of CYP7A1, CYP7B1, CYP27A1 and OATP genes” value in the assay on THP1 cells is “abolished”.

The values above are taken from patent US20210346401A1, “REGULATOR OF TGR5 SIGNALING AS IMMUNOMODULATORY AGENT” (YICHANG HUMANWELL PHARMACEUTICAL CO., LTD, priority 2018, published 2021).
